Test results: patent US20150065466A1, “NOVEL DXR INHIBITORS FOR ANTIMICROBIAL THERAPY” (priority 2012, published 2015)
Read-outs that look alike come from different tables or passages of the source.

Legend:
[1] = target: T1, EcDXR (Escherichia coli, UniProt P45568); details: cited from earlier work
[2] = target: T2, PfDXR (Plasmodium falciparum, UniProt Q8IKG4); details: Table 2, data from literature (footnote a); cited from earlier work
T2 sequence (Q8IKG4 75-488): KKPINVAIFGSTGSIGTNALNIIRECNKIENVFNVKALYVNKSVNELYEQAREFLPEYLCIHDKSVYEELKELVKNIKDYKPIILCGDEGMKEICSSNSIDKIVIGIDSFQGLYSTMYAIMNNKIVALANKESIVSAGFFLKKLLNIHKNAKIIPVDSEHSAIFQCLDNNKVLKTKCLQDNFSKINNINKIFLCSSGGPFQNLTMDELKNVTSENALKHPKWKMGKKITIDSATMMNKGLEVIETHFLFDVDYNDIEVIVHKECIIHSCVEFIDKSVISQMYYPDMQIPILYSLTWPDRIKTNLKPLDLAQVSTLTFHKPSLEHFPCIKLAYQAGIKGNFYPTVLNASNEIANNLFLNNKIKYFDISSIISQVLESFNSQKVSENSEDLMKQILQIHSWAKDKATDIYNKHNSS

[3] = target: TgDXR (Toxoplasma gondii, UniProt S8ESX0); format: biochemical, T. gondii
Chain of TgDXR (S8ESX0 entry or part of it): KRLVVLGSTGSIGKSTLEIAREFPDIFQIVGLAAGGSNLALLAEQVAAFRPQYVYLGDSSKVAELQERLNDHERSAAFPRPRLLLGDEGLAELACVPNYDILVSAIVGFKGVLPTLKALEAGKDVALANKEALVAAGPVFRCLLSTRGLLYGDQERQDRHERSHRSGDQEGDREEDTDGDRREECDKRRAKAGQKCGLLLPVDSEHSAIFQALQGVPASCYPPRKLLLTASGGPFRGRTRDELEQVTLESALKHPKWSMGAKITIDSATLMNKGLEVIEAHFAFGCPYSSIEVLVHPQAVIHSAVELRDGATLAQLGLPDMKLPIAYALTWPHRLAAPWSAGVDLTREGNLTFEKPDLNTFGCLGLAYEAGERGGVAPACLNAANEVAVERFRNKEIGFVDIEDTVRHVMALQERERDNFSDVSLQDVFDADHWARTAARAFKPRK

[4] = tested on: P. falciparum 3D7 strain; assay: P. falciparum proliferation, DAPI fluorescence assay, 3D7 strain; format: cell-based; details: read-out: IC50 against P. falciparum proliferation, 3D7 strain
[5] = tested on: T. gondii engineered to express the bacterial GlpT; details: Nair et al., 2011; cited from earlier work
[6] = tested on: P. falciparum Dd2 strain; assay: P. falciparum proliferation, DAPI fluorescence assay, Dd2 strain; format: cell-based; details: read-out: IC50 against P. falciparum proliferation, Dd2 strain
[7] = tested on: T. gondii; details: study from the Moreno group; cited from earlier work
[8] = tested on: P. aeruginosa isolates; details: Neu and Kamimura, 1981; cited from earlier work
[9] = cited from earlier work; for half life in plasma: human plasma, patients; for oral availability: human, in vivo
[10] = target: T2, PfDXR; assay: recombinant PfDXR enzyme inhibition; format: biochemical, P. falciparum
[11] = tested on: Hela; assay: cytotoxicity, MTS assay, Hela; format: cell-based, human; details: at 300 μM, 48 h
[12] = tested on: WI-38 (fibroblast); assay: cytotoxicity, MTS assay, WI-38; format: cell-based, human; details: at 300 μM, 48 h
Method: PfDXR inhibitors SYC-466, -467, -408, -409 were tested against three non-cancerous human cell lines, i.e., WI-38 (fibroblast), HEK293 (kidney) and Beas2B (lung epithelial), to evaluate the potential toxicity of these compounds, using an assay routinely perform (41). 1×10^5 cells are inoculated into each well of a 96-well plate and cultured in Dulbecco's Modified Eagle's Medium (DMEM) supplemented with 10% fetal bovine serum at 37° C. in a 5% CO2 atmosphere with 100% humidity overnight for cell attachment. After addition of compounds (from 0.1-300 μM), plates are incubated for 48 h after which cell viability are assessed by the [3-(4,5-dimethylthiazol-2-yl)-5-(3-carboxymethoxyphenyl)-2-(4-sulfophenyl)-2H-tetrazolium, inner salt (MTS) assay, using a commercially available kit (Promega). IC50s of each compound can be calculated from dose response curves.

[13] = tested on: A549; assay: cytotoxicity, MTS assay, A549; format: cell-based, human; details: at 300 μM, 48 h
[14] = target: T1, EcDXR; assay: recombinant EcDXR enzyme inhibition; format: biochemical, E. coli
[15] = 100 nM TgDXR, 4 mM MgCl2, 100 μM DXP, pH 7.6, read-out: Ki TgDXR
[16] = Plasmodium falciparum, 3D7, Erythrocyte, 72 h
[17] = Plasmodium falciparum, DD2, Erythrocyte, 72 h
[18] = 3D7 (chloroquine sensitive), erythrocyte stage, 3 days
[19] = Dd2 (multidrug resistant), erythrocyte stage, 3 days
[20] = read-out: Ki against recombinant EcDXR
[21] = Table 1, read-out: Enzyme Ki PfDXR

T1 sequence (P45568 whole entry): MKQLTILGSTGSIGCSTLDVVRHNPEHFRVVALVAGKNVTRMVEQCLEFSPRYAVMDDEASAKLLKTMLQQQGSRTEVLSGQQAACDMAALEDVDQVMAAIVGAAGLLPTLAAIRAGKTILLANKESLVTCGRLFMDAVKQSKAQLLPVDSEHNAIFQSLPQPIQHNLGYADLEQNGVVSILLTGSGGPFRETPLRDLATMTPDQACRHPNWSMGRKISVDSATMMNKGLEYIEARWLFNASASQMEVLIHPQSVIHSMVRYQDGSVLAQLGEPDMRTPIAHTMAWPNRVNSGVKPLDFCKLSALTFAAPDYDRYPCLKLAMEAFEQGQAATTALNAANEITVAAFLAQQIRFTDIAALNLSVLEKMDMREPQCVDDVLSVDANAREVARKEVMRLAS

In the case of `O=P(O)(O)Cc1ccccn1` [Compound 3], the Ki [1] is given as 2.3 µM, the Ki [2] is given as 3.3 µM and the “Ki against TgDXR, in words” value [3] is given as “low μM range”. It also gave a Ki [3, 15] of 4.1 µM.
In the case of `O=CN(O)CCC(c1ccc(Cl)c(Cl)c1)P(=O)(O)O` (stereo not drawn) [Compound 10], the Ki [1] is given as 0.058 µM, the Ki [2] is given as 0.015 µM and the Ki [3, 15] is given as 0.077 µM. For the same compound, the Ki ([3]; read-out: Ki against TgDXR) was 0.077 µM.
For `CC(=O)N(O)CCC(c1ccc(Cl)c(Cl)c1)P(=O)(O)O` (stereo not drawn) [Compound 11], the Ki [1] is given as 0.036 µM, the Ki [2] is given as 0.025 µM and the Ki [3, 15] is given as 0.22 µM.
In the case of `CC(=O)N(O)CCCP(=O)(O)O` [FR900098], the Ki ([1]; Table 2, data from literature (footnote a)) is listed as 0.019 µM, the Ki [2] is listed as 0.011 µM and the Ki [3, 15] is listed as 0.048 µM. For the same compound, the Ki ([3]; read-out: Ki against TgDXR) was 0.048 µM.
For `O=CN(O)CCCP(=O)(O)O` [Fosmidomycin], the IC50 [4, 16] is listed as 1.17 µM, the “killing of T. gondii expressing GlpT” value [5] is listed as “can effectively kill” and the IC50 [6, 17] is listed as 0.44 µM. For the same compound, the “activity on T. gondii parasite” value [7] was “no activity”, the Ki ([3]; read-out: Ki against TgDXR) was 0.09 µM and the “MIC50 (inhibits 50% of P. aeruginosa isolates)” value [8] was 6.25 µg/mL. The “half life in plasma” value [9] was 30 to 90 min, the “half life in plasma” value ([9]; listed as 1) was roughly 60 min and the oral availability [9] was “low”. The oral availability ([9]; listed as 1) was “poor”.
For `CC(=O)N(O)CCC(c1cccnc1)P(=O)(O)O` (stereo not drawn) [SYC-408], the IC50 [4, 18] was 0.44 µM, the Ki ([10]; listed as 5a, read-out: Ki against PfDXR) was 0.0019 µM and the “fold more active than fosmidomycin against PfDXR” value ([10]; ratio of Ki values) was roughly 10 fold. For the same compound, the Ki [1] was 0.042 µM, the IC50 [6, 19] was 0.31 µM and the “cytotoxicity against growth of Hela cells” value (from here on “cytotoxicity … of Hela cells”) [11] was “essentially no cytotoxicity”. The Ki [3, 15] was 0.97 µM, the “cytotoxicity against growth of WI-38 cells” value (“cytotoxicity … of WI-38 cells” for short) [12] was “essentially no cytotoxicity” and the “cytotoxicity against growth of A549 cells” value (from here on “cytotoxicity … of A549 cells”) [13] was “essentially no cytotoxicity”. The Ki [14, 20] was 0.042 µM.
For `CC(=O)N(O)CCC(c1ccncc1)P(=O)(O)O` (stereo not drawn) [SYC-409], the IC50 [4, 18] is listed as 0.63 µM, the Ki [10, 21] is listed as 0.013 µM and the Ki [1] is listed as 0.082 µM. For the same compound, the IC50 [6, 19] was 0.46 µM, the “cytotoxicity … of Hela cells” value [11] was “essentially no cytotoxicity” and the Ki [3, 15] was 0.53 µM. The “cytotoxicity … of WI-38 cells” value [12] was “essentially no cytotoxicity”, the “cytotoxicity … of A549 cells” value [13] was “essentially no cytotoxicity” and the Ki [14, 20] was 0.082 µM.
Compound `O=CN(O)CCC(c1cccnc1)P(=O)(O)O` (stereo not drawn) [SYC-466] has an IC50 [4, 16] of 0.34 µM, a Ki [10] of 0.013 µM and an IC50 [6, 17] of 0.18 µM. For the same compound, the Ki [2] was 0.013 µM, the “cytotoxicity … of Hela cells” value [11] was “essentially no cytotoxicity” and the Ki ([3]; read-out: Ki against TgDXR) was 0.055 µM. For the same compound, the “cytotoxicity … of WI-38 cells” value [12] was “essentially no cytotoxicity”, the “cytotoxicity … of A549 cells” value [13] was “essentially no cytotoxicity” and the Ki ([14]; Table 1, read-out: Enzyme Ki EcDXR) was 0.087 µM.
For `O=CN(O)CCC(c1ccncc1)P(=O)(O)O` (stereo not drawn) [SYC-467], the IC50 [4, 18] is given as 0.18 µM, the Ki [10, 21] is given as 0.0089 µM and the Ki [1] is given as 0.035 µM. The IC50 [6, 19] was 0.17 µM, the “cytotoxicity … of Hela cells” value [11] was “essentially no cytotoxicity” and the Ki [3, 15] was 0.079 µM. For the same compound, the Ki ([3]; read-out: Ki against TgDXR) was 0.079 µM, the “cytotoxicity … of WI-38 cells” value [12] was “essentially no cytotoxicity” and the “cytotoxicity … of A549 cells” value [13] was “essentially no cytotoxicity”. The Ki [14, 20] was 0.035 µM.
Work on `CCN(CC)CCCC(C)Nc1ccnc2cc(Cl)ccc12` (stereo not drawn) [chloroquinone, reference compound] yielded an IC50 ([4]; Plasmodium falciparum, 72 h, 3D7 (chloroquine sensitive), erythrocyte stage, 3 days) of 0.028 µM and an IC50 ([6]; Plasmodium falciparum, 72 h, Dd2 (multidrug resistant), erythrocyte stage, 3 days) of 0.111 µM.
In the case of gentamicin, the “MIC50 (inhibits 50% of P. aeruginosa isolates)” value [8] is given as 12.5 µg/mL.
